Holding throughout (assay): relative viability (nuclei count vs DMSO), 5 days (fraction); higher = more cells survive
Compound in the test “IMD-0354 + Phenformin”: O=C(Nc1cc(C(F)(F)F)cc(C(F)(F)F)c1)c1cc(Cl)ccc1O [IMD-0354] + N=C(N)NC(=N)NCCc1ccccc1 [Phenformin] (partner 250 µM)
A digest of the protocol:
(§1)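 Cells from lung cancer lines were seeded into 1536-well plates and, one day later, dosed by pin tool. Treatments were either a single drug or a fixed dose of an anchor drug with five library-drug doses (not always all listed) in √10 steps. After 5 days, nuclei were stained in a one-step fixation (final 0.05% Triton X-100, 1% formaldehyde, 1 ug/ml Hoechst) and counted on 4× images, and relative viability is the treated-to-vehicle nuclei ratio, as the median of duplicate plates.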

Compound in the test “CX-5461 + Olaparib”: Cc1cnc(CNC(=O)c2c(=O)c3ccc(N4CCCN(C)CC4)nc3n3c2sc2ccccc23)cn1 [CX-5461] + O=C(c1cc(Cc2n[nH]c(=O)c3ccccc23)ccc1F)N1CCN(C(=O)C2CC2)CC1 [Olaparib] (partner 8 µM)
The method in brief:
as §1

Compound in the test “CX-5461 + Linsitinib”: Cc1cnc(CNC(=O)c2c(=O)c3ccc(N4CCCN(C)CC4)nc3n3c2sc2ccccc23)cn1 [CX-5461] + C[C@]1(O)C[C@@H](c2nc(-c3ccc4ccc(-c5ccccc5)nc4c3)c3c(N)nccn32)C1 [Linsitinib] (partner 1 µM)
A digest of the protocol: as §1

Compound in the test “IMD-0354 + Trametinib”: O=C(Nc1cc(C(F)(F)F)cc(C(F)(F)F)c1)c1cc(Cl)ccc1O [IMD-0354] + CC(=O)Nc1cccc(-n2c(=O)n(C3CC3)c(=O)c3c(Nc4ccc(I)cc4F)n(C)c(=O)c(C)c32)c1 [Trametinib] (partner 0.02 µM)
The method in brief: as §1

Consider UMC-11, for which the relative viability was 0.321 with IMD-0354 + Phenformin (first compound 0.04 µM); 0.229 in the test with IMD-0354 + Phenformin (first compound 0.1265 µM); 0.202 with IMD-0354 + Phenformin (first compound 0.4 µM); 0.167 with IMD-0354 + Phenformin (first compound 1.265 µM); 0.181 with IMD-0354 + Phenformin (first compound 4 µM); 0.323 with CX-5461 + Olaparib (first compound 0.01 µM). Besides, the relative viability amounted to 0.369 in the test with CX-5461 + Olaparib (first compound 0.03162 µM); 0.321 with CX-5461 + Olaparib (first compound 0.1 µM); 0.395 in the test with CX-5461 + Olaparib (first compound 0.3162 µM); 0.267 in the test with CX-5461 + Olaparib (first compound 1 µM); 0.907 with CX-5461 + Linsitinib (first compound 0.01 µM); 1.07 with CX-5461 + Linsitinib (first compound 0.03162 µM). Further, the relative viability turned out to be 1.02 with CX-5461 + Linsitinib (first compound 0.1 µM); 0.92 with CX-5461 + Linsitinib (first compound 0.3162 µM); 0.807 in the test with CX-5461 + Linsitinib (first compound 1 µM); 0.745 with IMD-0354 + Trametinib (first compound 0.04 µM); 0.808 with IMD-0354 + Trametinib (first compound 0.1265 µM); 0.337 in the test with IMD-0354 + Trametinib (first compound 0.4 µM). The relative viability with IMD-0354 + Trametinib (first compound 1.265 µM) was 0.194; with IMD-0354 + Trametinib (first compound 4 µM), 0.246.

Values taken from the supplement of paper PMC10307832.
